Assay results taken from PubChem BioAssay (NCI).
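In this assay, cells in 96-well plates receive the compound at five concentrations for 48 hours. Endpoints are linearly interpolated between the surrounding concentrations. TGI: total growth inhibition.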

Legend:
Experiment in all cases: growth of human tumour cells (NCI), 48 h
NCI-H23 lung = test system: NCI-H23 lung
HOP-62 NSCLC = test system: HOP-62 NSCLC
HL-60(TB) leukemia = test system: HL-60(TB) leukemia
OVCAR-8 ovarian = test system: OVCAR-8 ovarian
KM12 colon = test system: KM12 colon
K-562 leukemia = test system: K-562 leukemia
HCC-2998 colon = test system: HCC-2998 colon
SK-MEL-28 melanoma = test system: SK-MEL-28 melanoma
COLO 205 colon = test system: COLO 205 colon
SK-MEL-5 melanoma = test system: SK-MEL-5 melanoma
EKVX NSCLC = test system: EKVX NSCLC
M14 melanoma = test system: M14 melanoma
SW-620 colon = test system: SW-620 colon
SNB-19 CNS = test system: SNB-19 CNS
UO-31 renal = test system: UO-31 renal
IGROV1 ovarian = test system: IGROV1 ovarian
HCT-15 colon = test system: HCT-15 colon
OVCAR-3 ovarian = test system: OVCAR-3 ovarian
OVCAR-5 ovarian = test system: OVCAR-5 ovarian
SF-268 CNS = test system: SF-268 CNS

In the case of `CC(C)OP(=O)(OC(C)C)c1nn(-c2ccc([N+](=O)[O-])cc2)c(=N)s1`, the TGI (NCI-H23 lung) is reported as over 100 µM, the TGI (HOP-62 NSCLC) is reported as over 100 µM and the TGI (HL-60(TB) leukemia) is reported as over 100 µM. For the same compound, the TGI (OVCAR-8 ovarian) was over 100 µM, the TGI (KM12 colon) was over 100 µM and the TGI (K-562 leukemia) was over 100 µM. For the same compound, the TGI (HCC-2998 colon) was over 100 µM, the TGI (SK-MEL-28 melanoma) was over 100 µM and the TGI (COLO 205 colon) was over 100 µM. The TGI (SK-MEL-5 melanoma) was over 100 µM, the TGI (EKVX NSCLC) was over 100 µM and the TGI (M14 melanoma) was over 100 µM. The TGI (SW-620 colon) was over 100 µM, the TGI (SNB-19 CNS) was over 100 µM and the TGI (UO-31 renal) was over 100 µM. The TGI (IGROV1 ovarian) was over 100 µM, the TGI (HCT-15 colon) was over 100 µM and the TGI (OVCAR-3 ovarian) was over 100 µM. It also gave a TGI (OVCAR-5 ovarian) of over 100 µM and a TGI (SF-268 CNS) of over 100 µM.

`O=c1cnn(C/C=C/CP(=O)(O)O)c(=O)[nH]1` showed a TGI (NCI-H23 lung) of over 100 µM, a TGI (HOP-62 NSCLC) of over 100 µM and a TGI (HL-60(TB) leukemia) of over 100 µM. It also gave a TGI (OVCAR-8 ovarian) of over 100 µM, a TGI (KM12 colon) of over 100 µM and a TGI (K-562 leukemia) of over 100 µM. For the same compound, the TGI (HCC-2998 colon) was over 100 µM, the TGI (SK-MEL-28 melanoma) was over 100 µM and the TGI (COLO 205 colon) was over 100 µM. For the same compound, the TGI (SK-MEL-5 melanoma) was over 100 µM, the TGI (EKVX NSCLC) was over 100 µM and the TGI (M14 melanoma) was over 100 µM. For the same compound, the TGI (SW-620 colon) was over 100 µM, the TGI (SNB-19 CNS) was over 100 µM and the TGI (UO-31 renal) was over 100 µM. For the same compound, the TGI (IGROV1 ovarian) was over 100 µM, the TGI (HCT-15 colon) was over 100 µM and the TGI (OVCAR-3 ovarian) was over 100 µM. For the same compound, the TGI (OVCAR-5 ovarian) was over 100 µM and the TGI (SF-268 CNS) was over 100 µM.

With `OC12c3ccccc3C1CCCCCCCCCC21OCCCO1` (stereo not given) the TGI (NCI-H23 lung) was over 100 µM, the TGI (HOP-62 NSCLC) was over 100 µM and the TGI (HL-60(TB) leukemia) was over 100 µM. The TGI (OVCAR-8 ovarian) was over 100 µM, the TGI (KM12 colon) was over 100 µM and the TGI (K-562 leukemia) was over 100 µM. For the same compound, the TGI (HCC-2998 colon) was over 100 µM, the TGI (SK-MEL-28 melanoma) was over 100 µM and the TGI (COLO 205 colon) was over 100 µM. It also gave a TGI (SK-MEL-5 melanoma) of over 100 µM, a TGI (EKVX NSCLC) of over 100 µM and a TGI (M14 melanoma) of over 100 µM. It also gave a TGI (SW-620 colon) of over 100 µM, a TGI (SNB-19 CNS) of over 100 µM and a TGI (UO-31 renal) of over 100 µM. The TGI (IGROV1 ovarian) was over 100 µM, the TGI (HCT-15 colon) was over 100 µM and the TGI (OVCAR-3 ovarian) was over 100 µM. The TGI (OVCAR-5 ovarian) was over 100 µM and the TGI (SF-268 CNS) was over 100 µM.

Work on `COc1cccc(N2C(=O)CSC2c2c[nH]c3ccccc23)c1` (stereo not given) yielded a TGI (NCI-H23 lung) of over 100 µM, a TGI (HOP-62 NSCLC) of over 100 µM and a TGI (HL-60(TB) leukemia) of over 100 µM. It also gave a TGI (OVCAR-8 ovarian) of over 100 µM, a TGI (KM12 colon) of over 100 µM and a TGI (K-562 leukemia) of over 100 µM. The TGI (HCC-2998 colon) was over 100 µM, the TGI (SK-MEL-28 melanoma) was over 100 µM and the TGI (COLO 205 colon) was over 100 µM. The TGI (SK-MEL-5 melanoma) was over 100 µM, the TGI (EKVX NSCLC) was over 100 µM and the TGI (M14 melanoma) was over 100 µM. It also gave a TGI (SW-620 colon) of over 100 µM, a TGI (SNB-19 CNS) of over 100 µM and a TGI (UO-31 renal) of over 100 µM. The TGI (IGROV1 ovarian) was over 100 µM, the TGI (HCT-15 colon) was over 100 µM and the TGI (OVCAR-3 ovarian) was over 100 µM. For the same compound, the TGI (OVCAR-5 ovarian) was over 100 µM and the TGI (SF-268 CNS) was over 100 µM.

Work on `COC1C(=[N+]=[N-])C(=O)NC(=O)N1C1OC(COC(c2ccccc2)(c2ccccc2)c2ccccc2)C(O)C1O` (stereo not given) yielded a TGI (NCI-H23 lung) of 34.8 µM, a TGI (HOP-62 NSCLC) of 41.1 µM and a TGI (HL-60(TB) leukemia) of 46.7 µM. The TGI (OVCAR-8 ovarian) was 36.9 µM, the TGI (KM12 colon) was 30.5 µM and the TGI (K-562 leukemia) was 49.4 µM. For the same compound, the TGI (HCC-2998 colon) was 32.8 µM, the TGI (SK-MEL-28 melanoma) was 31.2 µM and the TGI (COLO 205 colon) was 38 µM. For the same compound, the TGI (SK-MEL-5 melanoma) was 30 µM, the TGI (EKVX NSCLC) was 35.9 µM and the TGI (M14 melanoma) was 34.6 µM. For the same compound, the TGI (SW-620 colon) was 35.8 µM, the TGI (SNB-19 CNS) was 34 µM and the TGI (UO-31 renal) was 32.2 µM. The TGI (IGROV1 ovarian) was 47.5 µM, the TGI (HCT-15 colon) was 36.8 µM and the TGI (OVCAR-3 ovarian) was 32.9 µM. The TGI (OVCAR-5 ovarian) was 31.7 µM and the TGI (SF-268 CNS) was 35.7 µM.

`CCOC(=O)c1csc(NC(=O)CN2CCCCC2)n1` showed a TGI (NCI-H23 lung) of over 100 µM, a TGI (HOP-62 NSCLC) of over 100 µM and a TGI (HL-60(TB) leukemia) of over 100 µM. It also gave a TGI (OVCAR-8 ovarian) of over 100 µM, a TGI (KM12 colon) of over 100 µM and a TGI (K-562 leukemia) of over 100 µM. For the same compound, the TGI (HCC-2998 colon) was over 100 µM, the TGI (SK-MEL-28 melanoma) was over 100 µM and the TGI (COLO 205 colon) was over 100 µM. The TGI (SK-MEL-5 melanoma) was over 100 µM, the TGI (EKVX NSCLC) was over 100 µM and the TGI (M14 melanoma) was over 100 µM. It also gave a TGI (SW-620 colon) of over 100 µM, a TGI (SNB-19 CNS) of over 100 µM and a TGI (UO-31 renal) of over 100 µM. For the same compound, the TGI (IGROV1 ovarian) was over 100 µM, the TGI (HCT-15 colon) was over 100 µM and the TGI (OVCAR-3 ovarian) was over 100 µM. The TGI (OVCAR-5 ovarian) was over 100 µM and the TGI (SF-268 CNS) was over 100 µM.
